According to ChEMBL document CHEMBL5528067, “From Synergy to Monotherapy: Discovery of Novel 2,4,6-Trisubstituted Triazine Hydrazone Derivatives with Potent Antifungal Potency In Vitro and In Vivo” (J Med Chem, 2024):
Values after ≈ are worked out from the molar mass of the structure shown.

Legend:
Candida albicans [1] = experiment: Antifungal activity against FCZ-resistant Candida albicans strain 901 assessed as growth inhibition measured after 48 hrs incubation by CLSI based micro-dilution broth method; type: functional
Candida albicans [2] = experiment: Antifungal activity against FCZ-resistant Candida albicans strain 901 assessed as growth inhibition in presence of fluconazole measured after 48 hrs incubation by CLSI based micro-dilution broth method; type: functional
Candida albicans [3] = experiment: Synergistic antifungal activity against FCZ-resistant Candida albicans strain 901 assessed as fractional inhibitory concentration index measured after 48 hrs in presence of FCZ by CLSI based micro-dilution broth method; type: functional
Candida albicans [4] = experiment: Antifungal activity against FCZ-resistant Candida albicans strain 904 assessed as growth inhibition measured after 48 hrs incubation by CLSI based micro-dilution broth method; type: functional
Candida albicans [5] = experiment: Antifungal activity against FCZ-resistant Candida albicans strain 904 assessed as growth inhibition in presence of fluconazole measured after 48 hrs incubation by CLSI based micro-dilution broth method; type: functional
Candida albicans [6] = experiment: Synergistic antifungal activity against FCZ-resistant Candida albicans strain 904 assessed as fractional inhibitory concentration index measured after 48 hrs in presence of FCZ by CLSI based micro-dilution broth method; type: functional
Candida albicans [7] = experiment: Antifungal activity against FCZ-resistant Candida albicans SC5314 assessed as growth inhibition measured after 48 hrs incubation by CLSI based micro-dilution broth method; type: functional
Candida albicans [8] = experiment: Antifungal activity against FCZ-resistant Candida albicans 10231 assessed as growth inhibition measured after 48 hrs incubation by CLSI based micro-dilution broth method; type: functional
Cryptococcus neoformans = experiment: Antifungal activity against Cryptococcus neoformans 32609 assessed as growth inhibition measured after 48 hrs incubation by CLSI based micro-dilution broth method; type: functional
Nakaseomyces glabratus = experiment: Antifungal activity against Candida glabrata 537 assessed as growth inhibition measured after 48 hrs incubation by CLSI based micro-dilution broth method; type: functional
Pichia kudriavzevii = experiment: Antifungal activity against Candida krusei 4996 assessed as growth inhibition measured after 48 hrs incubation by CLSI based micro-dilution broth method; type: functional
Candida parapsilosis = experiment: Antifungal activity against Candida parapsilosis 22019 assessed as growth inhibition measured after 48 hrs incubation by CLSI based micro-dilution broth method; type: functional; conditions: Lodderomyces parapsilosis
Candida tropicalis = experiment: Antifungal activity against Candida tropicalis 8915 assessed as growth inhibition measured after 48 hrs incubation by CLSI based micro-dilution broth method; type: functional
[Candida] auris [9] = Antifungal activity against FCZ-resistant Candida auris 918 assessed as growth inhibition measured after 48 hrs incubation by CLSI based micro-dilution broth method; type: functional; conditions: Candidozyma auris
[Candida] auris [10] = Antifungal activity against FCZ-resistant Candida auris 919 assessed as growth inhibition measured after 48 hrs incubation by CLSI based micro-dilution broth method; type: functional; conditions: Candidozyma auris
[11] = Metabolic stability in mouse liver microsomes assessed as half life measured upto 60 mins by LC-MS/MS analysis; type: ADME, Microsome
[12] = Metabolic stability in mouse liver microsomes assessed as intrinsic clearance measured per mg of protein upto 60 mins by LC-MS/MS analysis; type: ADME, Microsome; conditions: read-out: CLH
Candida albicans [13] = experiment: Antifungal activity against FCZ-resistant Candida albicans strains assessed as growth inhibition measured after 48 hrs incubation by CLSI based micro-dilution broth method; type: functional

SMILES | MIC80 (Candida albicans [1]) | MIC80 (Candida albicans [2]) | fractional inhibitory concentration index (FICI) (Candida albicans [3]) | MIC80 (Candida albicans [4]) | MIC80 (Candida albicans [5]) | fractional inhibitory concentration index (FICI) (Candida albicans [6]) | MIC80 (Candida albicans [7]) | MIC80 (Candida albicans [8]) | MIC80 (Cryptococcus neoformans) | MIC80 (Nakaseomyces glabratus) | MIC80 (Pichia kudriavzevii) | MIC80 (Candida parapsilosis) | MIC80 (Candida tropicalis) | MIC80 ([Candida] auris [9]) | MIC80 ([Candida] auris [10]) | half-life [11] | microsomal CLint [12] | MIC80 (Candida albicans [13])
O=[N+]([O-])c1ccc(/C=N/Nc2nc(NCc3ccc(F)cc3)nc(NCc3ccc(F)cc3)n2)c(O)c1 | 2 µg/mL (≈ 3.95 µM) | 0.5 µg/mL | 0.38 | 2 µg/mL (≈ 3.95 µM) | 0.5 µg/mL | 0.38 | > 64 µg/mL | > 64 µg/mL | > 64 µg/mL | 2 µg/mL (≈ 3.95 µM) | > 64 µg/mL | > 64 µg/mL | > 64 µg/mL | > 64 µg/mL | > 64 µg/mL | – | – | –
O=[N+]([O-])c1ccc(O)c(/C=N/Nc2nc(NCc3ccc(F)cc3)nc(N3CCOCC3)n2)c1 | – | – | – | – | – | – | 4 µg/mL (≈ 8.54 µM) | 16 µg/mL (≈ 34.2 µM) | 4 µg/mL (≈ 8.54 µM) | 1 µg/mL (≈ 2.13 µM) | 2 µg/mL (≈ 4.27 µM) | 32 µg/mL (≈ 68.3 µM) | 4 µg/mL (≈ 8.54 µM) | > 64 µg/mL | > 64 µg/mL | – | – | –
O=[N+]([O-])c1ccc(O)c(/C=N/Nc2nc(NCc3ccc(F)cc3)nc(NCc3ccco3)n2)c1 | – | – | – | – | – | – | 2 µg/mL (≈ 4.18 µM) | 8 µg/mL (≈ 16.7 µM) | 2 µg/mL (≈ 4.18 µM) | 1 µg/mL (≈ 2.09 µM) | 1 µg/mL (≈ 2.09 µM) | 2 µg/mL (≈ 4.18 µM) | 2 µg/mL (≈ 4.18 µM) | 2 µg/mL (≈ 4.18 µM) | 4 µg/mL (≈ 8.36 µM) | – | – | –
Oc1ccccc1/C=N/Nc1nc(NCc2ccc(F)cc2)nc(NCc2ccc(F)cc2)n1 | 4 µg/mL (≈ 8.67 µM) | 0.5 µg/mL | 0.25 | 4 µg/mL (≈ 8.67 µM) | 0.5 µg/mL | 0.25 | > 64 µg/mL | > 64 µg/mL | 8 µg/mL (≈ 17.3 µM) | 4 µg/mL (≈ 8.67 µM) | > 64 µg/mL | 8 µg/mL (≈ 17.3 µM) | > 64 µg/mL | > 64 µg/mL | > 64 µg/mL | – | – | –
Cc1ncc2n1-c1ccc(Cl)cc1C(c1ccccc1F)=NC2 [MIDAZOLAM] | – | – | – | – | – | – | – | – | – | – | – | – | – | – | – | 3.09 min | 1120 µL/min/mg | –
O=[N+]([O-])c1cccc(O)c1/C=N/Nc1nc(NCc2ccc(F)cc2)nc(NCc2ccc(F)cc2)n1 | 4 µg/mL (≈ 7.9 µM) | 0.25 µg/mL | 0.19 | 4 µg/mL (≈ 7.9 µM) | 1 µg/mL | 0.38 | > 64 µg/mL | > 64 µg/mL | > 64 µg/mL | 2 µg/mL (≈ 3.95 µM) | > 64 µg/mL | > 64 µg/mL | > 64 µg/mL | > 64 µg/mL | > 64 µg/mL | – | – | 4 µg/mL (≈ 7.9 µM)
O=[N+]([O-])c1ccc(O)c(/C=N/Nc2nc(NCc3ccc(F)cc3)nc(NCC3CCCCC3)n2)c1 | – | – | – | – | – | – | 2 µg/mL (≈ 4.04 µM) | 16 µg/mL (≈ 32.4 µM) | 2 µg/mL (≈ 4.04 µM) | 1 µg/mL (≈ 2.02 µM) | 1 µg/mL (≈ 2.02 µM) | 2 µg/mL (≈ 4.04 µM) | 2 µg/mL (≈ 4.04 µM) | 4 µg/mL (≈ 8.09 µM) | 8 µg/mL (≈ 16.2 µM) | – | – | –
